Patent US20120258975A1, “Potent Small Molecule Inhibitors of Autophagy, and Methods of Use Thereof” (Shanghai Institute of Organic Chemistry, priority 2009, published 2012)

Assays:
LC3 = LC3 western blotting in MEF cells; type: cell-based, mouse; details: 4 hours, 10 μM, rapamycin 0.2 μM
Experimental: (§1) FIG. 5 depicts results related to showing that active derivatives of MBCQ reduce the levels of LC3II in MEF cells. […] The cell lysates were collected for western blotting using anti-LC3 antibody. B, Electron microscopy confirmation of the autophagy inhibitory effects of C43 (spautin) on MEF cells. MEF cells were treated with vehicle control (1‰ DMSO), and other indicated compounds for 4 h. Rapamycin (0.2 μM) and C43 (spautin) (10 μM). Then the cells were fixed with glutaraldehyde and prepared the sample for EM assay. Bar, 1:11,000. Arrows indicate double and multi-membrane autophagosomic vesicles. N: nucleus.
To confirm the inhibitory activity on autophagy, mouse embryo fibroblasts (MEF) cells were treated with C29, C43 or C71 for 4 hours in the presence or absence of rapamycin and the levels of autophagy were determined by LC3 western blotting. […] (FIG. 5A).

MEF cells = test: Electron microscopy of MEF cells; type: cell-based, mouse; details: rapamycin (0.2 μM) plus compound, 4 h
Experimental: as §1
The effect of C29 and C43 on autophagy was further confirmed by electron microscopy. In rapamycin treated MEF cells, numerous autophagosome vesicles with double membranes were observed, as well as many vesicles with multi-membrane as expected (FIG. 5B).

MDCK cells = MDCK cells under glucose-free condition; type: cell-based, canine
Description: Hs578Bst cells, established from normal tissue peripheral to the tumor and is myoepithelial in origin, also were not sensitive to spautin (FIGS. 12C and 12D).

[1] = tested on: USP10/Beclin1 and USP13/Beclin1 interaction; test: USP10 or USP13 / GFP-Beclin1 co-immunoprecipitation in 293T cells; type: cell-based; details: 10 μM, 4 h, with MG132
Experimental: To further confirm that USP10 and USP13 are the deubiquitinating proteases of Vps34 complexes, the interaction of Flag-USP10/GFP-Beclin1 and Myc-USP13/GFP-Beclin1 in 293T cells was assayed with immunoprecipitation. […] Furthermore, this may provide a mechanism to explain why beclin1 is frequently lost in many kinds of cancers as the loss of beclin1 may lead to a reduction of p53 by inhibiting its deubiquitining proteases.

[2] = tested on: USP3, USP10, USP13, USP16, USP18; test: USP protein levels (western blot)
Experimental: H4 cells were transfected with indicated siRNAs for 72 hrs or treated with rapamycin (0.2 μM) or spautin (10 μM) for 4 hrs, and non-target siRNA (N. T. siRNA) was used as negative control. The cell lysates were harvested and analyzed by western blotting using (Left): antibodies specific for the indicated proteins. Anti-α-tubulin was used as loading controls.

LC3II = test: Endogenous LC3II western blot in H4-LC3, 293T and MEF cells; type: cell-based; details: MBCQ and rapamycin co-treated versus rapamycin alone
Experimental: To confirm the inhibition of autophagy by MBCQ, H4-LC3 cells, 293T cells and mouse embryonic fibroblast cells were treated with MBCQ and the levels of endogenous LC3II were measured by western blot.

H4 cells = test: H4 cell growth and cell cycle; type: cell-based; details: 5 μM for 24 h and 48 h
Experimental: FIG. 6 depicts results showing that MBCQ has little effect on H4 cell growth. A, H4 cells were treated with MBCQ (5 μM) for 5 days and harvested daily for cell number counting in the presence of trypan blue; B, H4 cells were treated with MBCQ (5 μM) for 24 h and 48 h, and then cells were fixed with 70% ethanol, stained with propidium iodide (40 μg/mL) and incubated with RNase (200 μg/mL solution for 30 min. The cell cycle profile and possible apoptotic cell death were analyzed by flow cytometer.
To characterize the effect of MBCQ on cellular activity, the effect of MBCQ on cell survival and cell cycle was determined as outlined below. H4 cells were treated with MBCQ (5 μM) for 5 days and harvested daily for cell number counting in the presence of trypan blue. […] The cell cycle profile and possible apoptotic cells in H4 cells treated with MBCQ (5 μM) for 24 h and 48 h was also determined.

mTOR pathway = test: Western blotting of mTOR pathway phosphorylation; type: cell-based
Description: Since MBCQ inhibits autophagy induced by rapamycin and starvation, it was first determined if MBCQ affects the activity of mTOR. […] Thus, it was concluded that MBCQ has no effect for the mTOR pathway or type I PI3 kinase.

[3] = tested on: major intracellular organelles; test: Markers of intracellular organelles; type: cell-based
Experimental: The effects of MBCQ on early endosomes using immunostaining of EEA1 as a marker, lysosomes using immunostaining of lamp2 as a marker or lysotracker, trans-Golgi using GalT-YFP as a marker was determined. No effect of MBCQ was detected in any of these experiments.

| SMILES | autophagy induced by rapamycin (LC3 western blotting) (LC3) | autophagosomes (MEF cells) | apoptosis (MDCK cells) | growth suppression (MDCK cells; 10 μM of spautin for 48 hrs) | interaction of Flag-USP10 with GFP-Beclin1 [1] | levels of USP13 and USP10 ([2]; 293T cells and Bcap-37 cells) | levels of USP44 ([2]; 293T cells and Bcap-37 cells) | levels of USP3, USP10, USP13, USP16 and USP18 ([2]; H4 cells, 10 μM, 4 hrs) | levels of LC3II (LC3II) | cell cycle distribution (H4 cells) | phosphorylation of GSK-3α/β, AKT (mTOR pathway) | phosphorylation of mTOR and its targets, p70S6K and S6 (mTOR pathway; control or rapamycin treated cells) | early endosomes (EEA1), lysosomes (lamp2, lysotracker), trans-Golgi (GalT-YFP) [3] |
| --- | --- | --- | --- | --- | --- | --- | --- | --- | --- | --- | --- | --- | --- |
| Fc1ccc(CNc2ncnc3ccc(F)cc23)cc1 [C43, 6-fluoro-N-(4-fluorobenzyl)quinazolin-4-amine] | inhibited autophagy induced by rapamycin | autophagosomes are largely absent | did not induce apoptosis | ~25% | impair the interaction | reduce the levels of USP13 and USP10 | little effect | reduced the levels of these five USPs |  |  |  |  |  |
| Clc1ccc2ncnc(NCc3ccc4c(c3)OCO4)c2c1 [MBCQ] |  |  |  |  |  |  |  |  | consistently reduced | no detectable effect on cell cycle distribution | Nor does MBCQ have any effect | no effect on the phosphorylation of mTOR and its targets | No effect |
